Laboratory results as given in patent US20150274664A1 (MERCK SHARP & DOHME CORP., priority 2012, published 2015).
Changes are numbered by the printed parent chain.

Target: T1, human GPR119 (Homo sapiens, UniProt Q8TDV5)
T1 construct: expressed in transfected cells; host or cells: HEK293
T1 sequence (Q8TDV5 1-335): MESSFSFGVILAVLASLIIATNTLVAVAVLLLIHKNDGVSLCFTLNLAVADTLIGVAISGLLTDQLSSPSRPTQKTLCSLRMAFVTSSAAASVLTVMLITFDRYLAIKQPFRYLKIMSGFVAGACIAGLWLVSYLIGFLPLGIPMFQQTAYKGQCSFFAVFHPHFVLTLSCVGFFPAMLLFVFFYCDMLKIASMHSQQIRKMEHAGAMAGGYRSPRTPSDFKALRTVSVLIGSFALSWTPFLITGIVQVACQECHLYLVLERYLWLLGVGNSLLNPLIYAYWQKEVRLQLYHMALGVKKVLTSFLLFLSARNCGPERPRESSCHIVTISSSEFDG
Test: Measurement of GPR119 signaling using LANCE 384-well cAMP kit (LCMP assay)
Format: cell-based
Conditions: HEK293 cells stably transfected with human GPR119
In short: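 HEK293 cells stably expressing human GPR119, in stimulation buffer at pH 7.4 with 100 μM phosphodiesterase inhibitors, exposed to a 10-point compound dilution (2.5% DMSO final) for 45 min. cAMP measured by LANCE TR-FRET at 665 nm against a cAMP standard curve, normalized between DMSO basal and an internal agonist maximum, with a 4-parameter fit.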

| EC50 | SMILES |
| --- | --- |
| 18 nM | COCc1noc(N2CCC([C@H]3C[C@@H]3CCOc3ccc(CC(=O)N(C)C)c(F)c3)CC2)n1 [Example 93, 2-(2-fluoro-4-(2-((1R,2R)-2-(1-(3-(methoxymethyl)-1,2,4-oxadiazol-5-yl)piperidin-4-yl)cyclopropyl)ethoxy)phenyl)-N,N-dimethylacetamide] |
| 19 nM | COCc1noc(N2CCC([C@@H]3C[C@H]3CCOc3ccc(CC(=O)N4CCC4)c(F)c3)CC2)n1 [Example 91, 1-(azetidin-1-yl)-2-(2-fluoro-4-(2-((1S,2S)-2-(1-(3-(methoxymethyl)-1,2,4-oxadiazol-5-yl)piperidin-4-yl)cyclopropyl)ethoxy)phenyl)ethanone] |
| 5.5 nM | CCc1cnc(N2CCC([C@H]3C[C@@H]3CCOc3ccc(S(C)(=O)=O)c(F)c3)CC2)nc1 [Example 27, 5-ethyl-2-(4-((1R,2R)-2-(2-(3-fluoro-4-(methylsulfonyl)phenoxy)ethyl)cyclopropyl)piperidin-1-yl)pyrimidine] |
| 6.8 nM | CC(C)c1noc(N2CCC([C@@H]3C[C@H]3CCOc3ccc(CC(=O)N4CCC4)cc3F)CC2)n1 [Example 70, 1-(azetidin-1-yl)-2-(3-fluoro-4-(2-((1S,2S)-2-(1-(3-isopropyl-1,2,4-oxadiazol-5-yl)piperidin-4-yl)cyclopropyl)ethoxy)phenyl)ethanone] |

Further lines, the molecule ahead of its results:

| SMILES | EC50 |
| --- | --- |
| CCc1cnc(N2CCC([C@H]3C[C@@H]3CCOc3ccc(-n4cnnn4)cc3F)CC2)nc1 [Example 60, 5-ethyl-2-(4-((1R,2R)-2-(2-(2-fluoro-4-(1H-tetrazol-1-yl)phenoxy)ethyl)cyclopropyl)piperidin-1-yl)pyrimidine] | 17 nM |
| O=C(Cc1ccc(OCC[C@H]2C[C@@H]2C2CCN(c3ncc(Cl)cn3)CC2)c(F)c1)N1CCC1 [Example 35, 1-(azetidin-1-yl)-2-(4-(2-((1R,2R)-2-(1-(5-chloropyrimidin-2-yl)piperidin-4-yl)cyclopropyl)ethoxy)-3-fluorophenyl)ethanone] | 4.6 nM |

Target: T2, human SNP variant (S309L) of GPR119 (Homo sapiens, UniProt Q8TDV5, S309L)
T2 construct: expressed in transfected cells; host or cells: HEK293 Flp-In (Invitrogen)
T2 sequence (Q8TDV5 1-335 S309L): T1 sequence (Q8TDV5 1-335) with S309L
Test: GPR119 signaling, cAMP homogenous time resolved fluorescence (HTRF) assay
Format: cell-based
Conditions: HEK293 Flp-In cells stably transfected with human GPR119 (S309L), HTRF kit
Text: Measurement of GPR119 Signaling Using a Cyclic AMP (cAMP) Homogenous Time Resolved Fluorescence (HTRF) Assay
Chinese hamster ovary (CHO) cell lines stably transfected with the permissive guanine nucleotide binding protein alpha 15 (Gals) and murine GPR119 were maintained in DMEM media containing FBS, penicillin-streptomycin, puromycin, and G418 (geneticin). Alternatively, human embryonic kidney (HEK)293 Flp-In cells (Invitrogen, Carlsbad, Calif.) were stably transfected with a human SNP variant (S309L) of GPR119 and maintained in DMEM media containing FBS, penicillin-streptomycin, and hygromycin. Agonist activation of the GPR119 receptor was measured in receptor transfected cells described above, treated with compounds of this invention, using a commercial homogenous time resolved fluorescence (HTRF) kit for measurement of cAMP (CisBio, Bedford, Mass.). The assay was performed in 96-well half-volume plates (murine) or 384-well plates (human) following the manufacturers instructions. Briefly, suspended cells were incubated with a dose titration of test compound at RT for 60 min, lysed, and incubated with HTRF reagents for an additional 60 min. The plate was read using an Envision multilabel reader (Perkin Elmer) adjusted to read time resolved fluorescence and the cAMP concentrations were extrapolated from a cAMP calibration curve. […] The concentration of test compound required to stimulate a half-maximal response (EC50), and efficacy as compared to an internal agonist control, was determined from a sigmoidal 4-parameter curve fit of the resulting plot of normalized activity versus compound concentration.

| EC50 | SMILES |
| --- | --- |
| 6.7 nM | CS(=O)(=O)c1ccc(NCC[C@H]2C[C@@H]2C2CCN(c3ncc(Cl)cn3)CC2)cc1 [Example 128, N-(2-((1R,2S)-2-(1-(5-chloropyrimidin-2-yl)piperidin-4-yl)cyclopropyl)ethyl)-4-(methylsulfonyl)aniline] |
| 1.9 nM | CCc1cnc(N2CCC([C@H]3C[C@@H]3COCc3ccc(S(C)(=O)=O)cc3)CC2)nc1 [Example 10, 5-ethyl-2-(4-((1R,2S)-2-(((4-(methylsulfonyl)benzyl)oxy)methyl)cyclopropyl)piperidin-1-yl)pyrimidine] |
| 3.8 nM | CC(C)c1noc(N2CCC([C@H]3C[C@@H]3COCc3ccc(S(C)(=O)=O)cc3)CC2)n1 [Example 21, 3-isopropyl-5-(4-((1R,2S)-2-((4-(methylsulfonyl)benzyloxy)methyl)cyclopropyl)piperidin-1-yl)-1,2,4-oxadiazole] |
| 3.8 nM | CS(=O)(=O)c1ccc(COC[C@H]2C[C@@H]2C2CCN(c3ncc(Cl)cn3)CC2)nc1 [Example 1, 5-chloro-2-(4-((1R,2S)-2-(((5-(methylsulfonyl)pyridin-2-yl)methoxy)methyl)cyclopropyl)piperidin-1-yl)pyrimidine] |
| 7.9 nM | CCCc1noc(N2CCC([C@@H]3C[C@H]3CCOc3ccc(S(C)(=O)=O)cn3)CC2)n1 [Example 113, 5-(4-((1S,2S)-2-(2-((5-(methylsulfonyl)pyridin-2-yl)oxy)ethyl)cyclopropyl)piperidin-1-yl)-3-propyl-1,2,4-oxadiazole] |
| 1.2 nM | CS(=O)(=O)c1ccc(COC[C@H]2C[C@@H]2C2CCN(c3ncc(Cl)cn3)CC2)cc1 [Example 2, 5-chloro-2-(4-((1R,2S)-2-(((4-(methylsulfonyl)benzyl)oxy)methyl)cyclopropyl)piperidin-1-yl)pyrimidine] |
| 5.8 nM | CCS(=O)(=O)c1ccc(COC[C@H]2C[C@@H]2C2CCN(c3ncc(C)cn3)CC2)cc1 [Example 7, 2-(4-((1R,2S)-2-(((4-(ethylsulfonyl)benzyl)oxy)methyl)cyclopropyl)piperidin-1-yl)-5-methylpyrimidine] |
| 3.2 nM | CC(C)c1noc(N2CCC([C@H]3C[C@@H]3COCc3ccc(S(C)(=O)=O)c(F)c3)CC2)n1 [Example 22, 5-(4-((1R,2S)-2-(((3-fluoro-4-(methylsulfonyl)benzyl)oxy)methyl)cyclopropyl)piperidin-1-yl)-3-isopropyl-1,2,4-oxadiazole] |
| 6.1 nM | CS(=O)(=O)c1ccc(OCC[C@@H]2C[C@H]2C2CCN(c3nc(C4CC4)no3)CC2)nc1 [Example 112, 3-cyclopropyl-5-(4-((1S,2S)-2-(2-((5-(methylsulfonyl)pyridin-2-yl)oxy)ethyl)cyclopropyl)piperidin-1-yl)-1,2,4-oxadiazole] |

More lines, now with the values behind:

| SMILES | EC50 |
| --- | --- |
| Cc1nnc(-c2ccc(OCC[C@@H]3C[C@H]3C3CCN(c4ncc(Cl)cn4)CC3)cc2F)o1 [Example 64, 2-(4-(2-((1S,2S)-2-(1-(5-chloropyrimidin-2-yl)piperidin-4-yl)cyclopropyl)ethoxy)-2-fluorophenyl)-5-methyl-1,3,4-oxadiazole] | 8.4 nM |
| CS(=O)(=O)c1ccc(COC[C@H]2C[C@@H]2C2CCN(C(=O)OC3CC3)CC2)cc1F [Example 15, cyclopropyl 4-((1R,2S)-2-(((3-fluoro-4-(methylsulfonyl)benzyl)oxy)methyl)cyclopropyl)piperidine-1-carboxylate] | 2.4 nM |
| CS(=O)(=O)c1ccc(COC[C@H]2C[C@@H]2C2CCN(C(=O)OC3CC3)CC2)cc1 [Example 16, cyclopropyl 4-((1R,2S)-2-(((4-(methylsulfonyl)benzyl)oxy)methyl)cyclopropyl)piperidine-1-carboxylate] | 5.7 nM |
| CS(=O)(=O)c1ccc(COC[C@H]2C[C@@H]2C2CCN(c3ncc(Cl)cn3)CC2)cc1F [Example 5, 5-chloro-2-(4-((1R,2S)-2-(((3-fluoro-4-(methylsulfonyl)benzyl)oxy)methyl)cyclopropyl)piperidin-1-yl)pyrimidine] | 1 nM |
| CS(=O)(=O)c1ccc(OCC[C@@]2(C#N)C[C@@H]2C2CCN(c3ncc(Cl)cn3)CC2)cc1 [Example 127, (1S,2R)-2-(1-(5-chloropyrimidin-2-yl)piperidin-4-yl)-1-(2-(4-(methylsulfonyl)phenoxy)ethyl)cyclopropanecarbonitrile] | 3 nM |
| COCc1cnc(N2CCC([C@H]3C[C@@H]3CCNc3ncc(-n4cnnn4)cn3)CC2)nc1 [Example 124, N-(2-((1R,2S)-2-(1-(5-(methoxymethyl)pyrimidin-2-yl)piperidin-4-yl)cyclopropyl)ethyl)-5-(1H-tetrazol-1-yl)pyrimidin-2-amine] | 5.2 nM |
| CC1(OC(=O)N2CCC([C@H]3C[C@@H]3COCc3ccc(S(C)(=O)=O)c(F)c3)CC2)CC1 [Example 17, 1-methylcyclopropyl 4-((1R,2S)-2-(((3-fluoro-4-(methylsulfonyl)benzyl)oxy)methyl)cyclopropyl)piperidine-1-carboxylate] | 4.6 nM |
| CC(C)OC(=O)N1CCC([C@H]2C[C@@H]2COCc2ccc(S(C)(=O)=O)c(F)c2)CC1 [Example 20, isopropyl 4-((1R,2S)-2-(((3-fluoro-4-(methylsulfonyl)benzyl)oxy)methyl)cyclopropyl)piperidine-1-carboxylate] | 5.8 nM |
| CCS(=O)(=O)c1ccc(COC[C@H]2C[C@@H]2C2CCN(c3ncc(Cl)cn3)CC2)cc1 [Example 3, 5-chloro-2-(4-((1R,2S)-2-(((4-(ethylsulfonyl)benzyl)oxy)methyl)cyclopropyl)piperidin-1-yl)pyrimidine] | 0.73 nM |
